# Experimental data: patent publication US5597806A, “Antifungal agents” (Merck & Co., Inc., priority 1995, dated 1997)
# Read-outs that look alike come from different tables or passages of the source.
# What was measured:
# Assay in all cases: broth microdilution assay
# [1] = test system: Aspergillus fumigatus (MF5668); assay type: cell-based; details: for MIC: complete clearing
# Protocol: (§1) In the microbroth dilution assay, the selected microorganisms were grown by streaking a yeast culture on Sabouraud Dextrose agar (SDA) and incubating for 24-48 hr at 35°-37° C. Thereafter, 3-5 characteristic colonies were selected and transferred to CM-YNB+0.1% Dextrose Agar plates (1% Bactopeptone, 0.5% yeast extract, 6.7 g/L yeast nitrogen base with amino acids, 1 μM adenine, 0.1% dextrose, and 1.5% Bacto agar) and incubated overnight at 35°-37° C. From the regrowth, 3 to 5 colonies were selected and suspended in 5 ml of CM-YNBD media (same as above, only without agar) and incubated for 4-6 hr at 35°-37° C. shaking at 225 rpm. The broth cultures were adjusted spectrophotometrically to 86% transmission resulting in a concentration of 1-5×10^6 cfu/ml which was further diluted 1:100 (1:50 for Aspergillus) in CM-YNBD to obtain a concentration of 1-5 ×10^4 cfu/ml to use as inocula.
# (§2) The test compounds were prepared as a stock solution of 512 μg/ml in 10% DMSO and 75 μl of said solution delivered to a well in column one of each 96 well, U-bottomed microtiter plate that already contained 75 μl of CM-YNBD media per well. In the first run of the assay, Compound I was then serially diluted two fold from column 1 to column 12 to yield concentrations from 256 μg/ml to 0,125 μg/ml.
# as §2, with “Amphotericin B, the control compound, was” for “The test compounds were”, “The compound” for “In the first run of the assay, Compound I”
# (§3) The plates containing the diluted compounds were then inoculated with 75 μl/well of the appropriate microorganism resulting in a further 2-fold dilution such that the final concentration of test compounds ranged between 128 and 0.06 μg/ml. The plates were incubated for 48 hours at 35°-37° C. with MIC (minimum inhibitory concentration) determinations carried out after 24 hours of incubation. Growth and sterility controls for each organism and sterility checks for the compounds also were carried out. In three cases, a modified MIC endpoint (MIC2) was used.
# (§4) No MFC values are indicated for Aspergillus fumigatus since colony counts are unreliable with filamentous species. Instead, a Minimum Effective Concentration (MEC) is reported for A. fumigatus. The MEC is defined as the lowest concentration of drug which effects a severe morphological change in the cells. The MEC is scored […] by direct observation of the microtiter plate wells after 24 hours and reflects microscopic alterations in cell morphology (Kurtz et al. AAC:38:1480-1489[94]).
# (§5) In this run, Compound I was titrated from 64-0.03 μg/ml and Compound II was titrated from 128-0.06 μg/ml.
# [2] = test system: Aspergillus fumigatus (MF4839); assay type: cell-based; details: for MIC: complete clearing
# Protocol: as §1, §2
# as §2, with “Amphotericin B, the control compound, was” for “The test compounds were”, “The compound” for “In the first run of the assay, Compound I”
# as §3, §4, §5
# [3] = test system: Candida pseudotroplicalis (MY2099); assay type: cell-based, Candida pseudotropicalis; details: for MIC: complete clearing
# Protocol: as §1, §2
# as §2, with “Amphotericin B, the control compound, was” for “The test compounds were”, “The compound” for “In the first run of the assay, Compound I”
# as §3
# After recording MICs at 24 hours, samples are withdrawn to determine the MFC. The microtiter plates were shaken gently to resuspend the cells and […] sample was transferred from each well of the 96 well plate to the surface of a single reservoir inoculum plate containing 15 ml of SDA. The inoculated SDA and corresponding microtiter plates were incubated for 24 hours at 35°-37° C. For Cryptococcus neoformans, the MFC plates were inoculated after reading the 48 hour MICs and incubated for 48 hours before reading the MFC. […]
# [4] = test system: Candida tropicalis (MY1124); assay type: cell-based
# Protocol: as §1, §2
# as §2, with “Amphotericin B, the control compound, was” for “The test compounds were”, “The compound” for “In the first run of the assay, Compound I”
# as §3
# (§6) After recording MICs at 24 hours, samples are withdrawn to determine the MFC. The microtiter plates were shaken gently to resuspend the cells and […] sample was transferred from each well of the 96 well plate to the surface of a single reservoir inoculum plate containing 15 ml of SDA. The inoculated SDA and corresponding microtiter plates were incubated for 24 hours at 35°-37° C. For Cryptococcus neoformans, the MFC plates were inoculated after reading the 48 hour MICs and incubated for 48 hours before reading the MFC. The MFC is the lowest concentration of compound at which either no growth or growth of ≤3 colonies occurs.
# as §5
# [5] = test system: Candida guillermondii (MY1019); assay type: cell-based; details: for MIC: complete clearing
# Protocol: as §1, §2
# as §2, with “Amphotericin B, the control compound, was” for “The test compounds were”, “The compound” for “In the first run of the assay, Compound I”
# as §3, §6, §5
# [6] = test system: Cryptococcus neoformans (MY2062); assay type: cell-based; details: complete clearing
# Protocol: as §1, §2
# as §2, with “Amphotericin B, the control compound, was” for “The test compounds were”, “The compound” for “In the first run of the assay, Compound I”
# as §3, §6, §5
# [7] = test system: Candida albicans (CLY539); assay type: cell-based; details: for MIC: * = MIC2, prominent decrease in turbidity
# Protocol: as §1, §2
# as §2, with “Amphotericin B, the control compound, was” for “The test compounds were”, “The compound” for “In the first run of the assay, Compound I”
# as §3, §6, §5
# [8] = test system: Saccharomyces cerevisiae (MY2141); assay type: cell-based; details: for MIC: complete clearing
# Protocol: as §1, §2
# as §2, with “Amphotericin B, the control compound, was” for “The test compounds were”, “The compound” for “In the first run of the assay, Compound I”
# as §3, §6, §5
# [9] = test system: Candida tropicalis (MY1012); assay type: cell-based; details: for MIC: complete clearing
# Protocol: as §1, §2
# as §2, with “Amphotericin B, the control compound, was” for “The test compounds were”, “The compound” for “In the first run of the assay, Compound I”
# as §3, §6, §5
# [10] = test system: Candida parapsilosis (MY1010); assay type: cell-based; details: Lodderomyces parapsilosis
# Protocol: as §1, §2
# as §2, with “Amphotericin B, the control compound, was” for “The test compounds were”, “The compound” for “In the first run of the assay, Compound I”
# as §3, §6, §5
# [11] = test system: Candida albicans (CA2); assay type: cell-based; details: comparative run, I 64-0.03, II 128-0.06 μg/ml, complete clearing
# Protocol: as §1, §2
# as §2, with “Amphotericin B, the control compound, was” for “The test compounds were”, “The compound” for “In the first run of the assay, Compound I”
# as §3, §6, §5
# [12] = test system: Saccharomyces cerevisiae (MY2140); assay type: cell-based; details: for MIC: complete clearing
# Protocol: as §1, §2
# as §2, with “Amphotericin B, the control compound, was” for “The test compounds were”, “The compound” for “In the first run of the assay, Compound I”
# as §3, §6, §5
# [13] = test system: Candida albicans (MY1055); assay type: cell-based
# Protocol: as §1, §2
# as §2, with “Amphotericin B, the control compound, was” for “The test compounds were”, “The compound” for “In the first run of the assay, Compound I”
# as §3, §6, §5
# [14] = test system: Candida glabrata (MY1381); assay type: cell-based; details: Nakaseomyces glabratus; for MIC: complete clearing
# Protocol: as §1, §2
# as §2, with “Amphotericin B, the control compound, was” for “The test compounds were”, “The compound” for “In the first run of the assay, Compound I”
# as §3, §6, §5
# [15] = comparative run, I 64-0.03, II 128-0.06 μg/ml
# [16] = comparative run, II 128-0.06 μg/ml, * = MIC2, prominent decrease in turbidity, read-out: MIC2
# [17] = first run, 128-0.06 μg/ml, 24 h
# [18] = first run, lowest concentration effecting severe morphological change, 24 h, read-out: MEC
# [19] = first run, 128-0.06 μg/ml, no growth or ≤3 colonies
# [20] = first run, 128-0.06 μg/ml, 24 h, * = MIC2, prominent decrease in turbidity, read-out: MIC2
# [21] = comparative run, I 64-0.03 μg/ml, complete clearing, read-out: MIC
structure (smiles),measurement,setting,value
C=C(CCC(C)C1CCC2(C(=O)O)C3=C(CCC12C)C1(C)CCC(OC2OC(CO)C(O)C(O)C2O)C(=C)C1CC3)C(C)C (stereo not shown) [Compound II],MIC,[1]; [15],> 128 µg/mL
same,MIC,[2]; [15],> 128 µg/mL
same,MIC,[3]; [15],< 0.06 µg/mL
same,MIC,"[4]; comparative run, II 128-0.06 μg/ml, complete clearing, read-out: MIC",0.5 µg/mL
same,MIC,[5]; [15],> 128 µg/mL
same,MIC,[6]; [15],> 128 µg/mL
same,MIC,[7]; [15],> 128 µg/mL
same,MIC,[8]; [15],< 0.06 µg/mL
same,MIC,[9]; [15],8 µg/mL
same,MIC,[10]; [16],2 µg/mL
same,MIC,[11],> 128 µg/mL
same,MIC,[12]; [15],1 µg/mL
same,MIC,[13]; [16],1 µg/mL
same,MIC,[14]; [15],0.5 µg/mL
C=C(CCC(C)C1CC(O)C2(C(=O)O)C3=C(CCC12C)C1(C)CCC(OC2OC(CO)C(OC)C(O)C2O)C(=C)C1CC3)C(C)C (stereo not shown) [Compound I],MIC,[1]; [15],> 64 µg/mL
same,MIC,[1]; [17],> 128 µg/mL
same,minimal effective concentration,[1]; [18],< 0.06 µg/mL
same,MIC,[2]; [15],> 64 µg/mL
same,MIC,[2]; [17],> 128 µg/mL
same,minimal effective concentration,[2]; [18],0.25 µg/mL
same,MIC,[3]; [15],< 0.03 µg/mL
same,MIC,[3]; [17],< 0.06 µg/mL
same,MFC,[3]; [19],< 0.06 µg/mL
same,MIC,"[4]; comparative run, I 64-0.03 μg/ml, * = MIC2, prominent decrease in turbidity, read-out: MIC2",< 0.03 µg/mL
same,MIC,[4]; [20],0.25 µg/mL
same,MFC,[4]; [19],0.125 µg/mL
same,MIC,[5]; [15],> 64 µg/mL
same,MIC,[5]; [17],> 128 µg/mL
same,MFC,[5]; [19],> 128 µg/mL
same,MIC,[6]; [15],> 64 µg/mL
same,MIC,"[6]; first run, 128-0.06 μg/ml",32 µg/mL
same,MIC,[7]; [15],< 0.03 µg/mL
same,MIC,[7]; [17],0.5 µg/mL
same,MFC,[7]; [19],> 128 µg/mL
same,MIC,[8]; [15],< 0.03 µg/mL
same,MIC,[8]; [17],< 0.06 µg/mL
same,MFC,[8]; [19],< 0.06 µg/mL
same,MIC,[9]; [15],8 µg/mL
same,MIC,[9]; [17],8 µg/mL
same,MFC,[9]; [19],8 µg/mL
same,MIC,[10]; [21],< 0.03 µg/mL
same,MIC,"[10]; first run, 128-0.06 μg/ml, 24 h, complete clearing, read-out: MIC",< 0.06 µg/mL
same,MFC,[10]; [19],< 0.06 µg/mL
same,MIC,[11],> 64 µg/mL
same,MIC,[12]; [15],4 µg/mL
same,MIC,[12]; [17],8 µg/mL
same,MFC,[12]; [19],4 µg/mL
same,MIC,[13]; [21],< 0.03 µg/mL
same,MIC,[13]; [20],2 µg/mL
same,MFC,[13]; [19],< 0.06 µg/mL
same,MIC,[14]; [17],< 0.06 µg/mL
same,MFC,[14]; [19],< 0.06 µg/mL
